In US20230265116A1, “DEGRADATION OF (EGFR) BY CONJUGATION OF EGFR INHIBITORS WITH E3 LIGASE LIGAND AND METHODS OF USE” (BEIGENE, LTD., priority 2020, published 2023):

Legend:
[1] = biological target: T1, EGFR L858R/T790M/C797S (BaF3-LTC cells) (Homo sapiens, UniProt P00533, C797S/L858R/T790M); test: EGFR degradation HTRF assay, BaF3-LTC cells; format: cell-based; conditions: BaF3-LTC, 16h treatment; for Dmax: maximum percentage of degradation, read-out: LTC Dmax (%); for DC50: read-out: LTC DC50
T1 construct: expressed in transfected cells; host or cells: BaF3
T1 sequence (P00533 25-1210 T790M/C797S/L858R): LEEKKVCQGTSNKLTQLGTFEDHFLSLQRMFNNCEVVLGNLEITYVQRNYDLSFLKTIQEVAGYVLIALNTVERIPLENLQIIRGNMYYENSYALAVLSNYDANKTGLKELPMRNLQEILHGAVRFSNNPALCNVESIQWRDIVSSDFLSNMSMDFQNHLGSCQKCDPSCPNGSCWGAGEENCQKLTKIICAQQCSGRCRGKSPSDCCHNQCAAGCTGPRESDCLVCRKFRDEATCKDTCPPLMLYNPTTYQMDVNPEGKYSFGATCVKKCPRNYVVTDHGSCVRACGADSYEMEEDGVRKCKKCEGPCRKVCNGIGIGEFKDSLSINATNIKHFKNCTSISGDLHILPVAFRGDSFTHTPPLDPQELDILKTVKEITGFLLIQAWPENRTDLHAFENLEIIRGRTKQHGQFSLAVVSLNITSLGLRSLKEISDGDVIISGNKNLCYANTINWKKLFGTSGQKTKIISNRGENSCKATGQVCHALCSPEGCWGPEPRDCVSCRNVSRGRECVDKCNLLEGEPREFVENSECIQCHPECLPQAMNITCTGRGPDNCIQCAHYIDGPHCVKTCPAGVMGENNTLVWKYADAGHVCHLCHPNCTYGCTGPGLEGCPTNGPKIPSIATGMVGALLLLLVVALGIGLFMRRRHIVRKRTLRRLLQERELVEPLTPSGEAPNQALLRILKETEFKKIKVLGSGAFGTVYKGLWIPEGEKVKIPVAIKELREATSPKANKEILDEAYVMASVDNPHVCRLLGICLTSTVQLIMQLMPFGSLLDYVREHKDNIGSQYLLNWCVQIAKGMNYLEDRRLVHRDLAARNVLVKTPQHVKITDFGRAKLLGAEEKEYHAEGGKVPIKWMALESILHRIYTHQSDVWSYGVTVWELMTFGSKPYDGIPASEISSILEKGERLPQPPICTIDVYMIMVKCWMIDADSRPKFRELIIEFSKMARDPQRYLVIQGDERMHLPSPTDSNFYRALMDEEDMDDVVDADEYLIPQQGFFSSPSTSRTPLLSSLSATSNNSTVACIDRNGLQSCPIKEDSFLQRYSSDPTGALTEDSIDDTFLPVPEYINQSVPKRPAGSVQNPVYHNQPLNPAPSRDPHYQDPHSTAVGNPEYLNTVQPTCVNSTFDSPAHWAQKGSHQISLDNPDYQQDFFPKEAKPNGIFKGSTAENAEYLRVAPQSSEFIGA
Procedure, shortened: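 Cells treated 16 h at 37 °C, 5% CO2 in medium with 0.2% DMSO; top final concentration 10 uM, 5-fold dilution, 8 doses. Lysates read by HTRF (665/620 nm); degradation % versus DMSO high control, DC50 from four-parameter fit, Dmax as maximal degradation.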

[2] = test system: EGFR Del19/T790M/C797S (BaF3-DTC cells); test: EGFR degradation HTRF assay, BaF3-DTC cells; format: cell-based; conditions: 16h treatment; for DTC Dmax (%): maximum percentage of degradation; for DC50: read-out: DTC DC50
Procedure: BaF3 WT(wild type), BaF3-LTC(L858R/T790M/C797S) and BaF3-DTC(Del19/T790M/C797S) cells are treated with compounds diluted in 0.2% DMSO cell culture medium and incubate for 16h, 37° C., 5% CO2, H1975-#36, H1975-#28, H1975-#23 and HCC827 cells are treated with compounds diluted in 0.2% DMSO cell culture medium on day 2, incubate for 16h, 37° C., 5% CO2.the final concentriation of compounds in all assay is start with 10 uM, 5-fold dilution, total 8 doses were included.
After 16h treatment, add HTRF lysis buffer to each well; seal the plate and incubate 1 hour at room temperature on a plate shaker; Once the cells are lysed, 16 μL of cell lysate are transferred to a PE 384-well HTRF detection plate; 4 μL of pre-mixed HTRF antibodies are added to each well; Cover the plate with a plate sealer, spin 1000 rpm for 1 min, Incubate overnight at room temperature; Read on BMG PheraStar with HTRF protocol (337 nm-665 nm-620 nm).
The inhibition (degradation) percentage of the compound was calculated by the following equation: Inhibition percentage of Compound=100-100×(Signal-low control)/(High control-low control), wherein signal=each test compound group
High control=Cell group with added DMSO and without compound, indicating microplate readings without EGFR degradation;
Dmax is the maximum percentage of inhibition (degradation).
The IC50 (DC50) value of a compound can be obtained by fitting the following equation
Y=Bottom+(TOP−Bottom)/(1+((IC50/X)^hillslope))
Wherein, X and Y are known values, and IC50, Hillslope, Top and Bottom are the parameters obtained by fitting with software. Y is the inhibition percentage (calculated from the equation), X is the concentration of the compound; IC50 is the concentration of the compound when the 50% inhibition is reached. The smaller the IC50 value is, the stronger the inhibitory ability of the compound is. Vice versa, the higher the IC50 value is, the weaker the inhibitory ability of the compound is; Hillslope represents the slope of the fitted curve, generally around 1*; Bottom represents the minimum value of the curve obtained by data fitting, which is generally 0%±20%; Top represents the maximum value of the curve obtained by data fitting, which is generally 100%±20%. The experimental data were fitted by calculating and analyzing with Dotmatics data analysis software.

Dmax [1]	DC50 [1]	DC50 [2]	SMILES	DTC Dmax (%) [2]
91.3%	22.7 nM	15.2 nM	CCc1cc(Nc2ncc(Br)c(Nc3ccc4nc(C)ccc4c3P(C)(C)=O)n2)c(OC)cc1N1CCC(N2CCN(C(=O)C3CN(CCc4cc(F)c(C5CCC(=O)NC5=O)c(F)c4)C3)CC2)CC1 (stereo not drawn) [Example 708, 3-(4-(2-(3-(4-(1-(4-((5-bromo-4-((5-(dimethylphosphoryl)-2-methylquinolin-6-yl)amino)pyrimidin-2-yl)amino)-2-ethyl-5-methoxyphenyl)piperidin-4-yl)piperazine-1-carbonyl)azetidin-1-yl)ethyl)-2,6-difluorophenyl)piperidine-2,6-dione]	81.62%
89.2%	6.06 nM	3.04 nM	CCc1cc(Nc2ncc(Br)c(Nc3ccc4nc(C)ccc4c3P(C)(C)=O)n2)c(OC)cc1N1CCC(N2CCN(C(=O)C34CCC(Nc5cc(F)c(C6CCC(=O)NC6=O)c(F)c5)(CC3)C4)CC2)CC1 (stereo not drawn) [Example 699, 3-(4-((4-(4-(1-(4-((5-bromo-4-((5-(dimethylphosphoryl)-2-methylquinolin-6-yl)amino)pyrimidin-2-yl)amino)-2-ethyl-5-methoxyphenyl)piperidin-4-yl)piperazine-1-carbonyl)bicyclo[2.2.1]heptan-1-yl)amino)-2,6-difluorophenyl)piperidine-2,6-dione]	85.08%
91.7%	20.3 nM	10.4 nM	CCc1cc(Nc2ncc(Br)c(Nc3ccc4c(=O)n(C)ccc4c3P(C)(C)=O)n2)c(OC)cc1N1CCC(N2CCN(CCC3CCN(c4cc(F)c(C5CCC(=O)NC5=O)c(F)c4)CC3)CC2)CC1 (stereo not drawn) [Example 720, 3-(4-(4-(2-(4-(1-(4-((5-bromo-4-((5-(dimethylphosphoryl)-2-methyl-1-oxo-1,2-dihydroisoquinolin-6-yl)amino)pyrimidin-2-yl)amino)-2-ethyl-5-methoxyphenyl)piperidin-4-yl)piperazin-1-yl)ethyl)piperidin-1-yl)-2,6-difluorophenyl)piperidine-2,6-dione]	86.63%
86.7%	28.6 nM	3.01 nM	CCc1cc(Nc2ncc(Br)c(Nc3ccc4nccnc4c3P(C)(C)=O)n2)c(OC)cc1N1CCC(N2CCN(CCN(C)c3ccc4c(c3)C(=O)N(C3CCC(=O)NC3=O)C4)CC2)CC1 (stereo not drawn) [Example 249, 3-(6-((2-(4-(1-(4-((5-bromo-4-((5-(dimethylphosphoryl)quinoxalin-6-yl)amino)pyrimidin-2-yl)amino)-2-ethyl-5-methoxyphenyl)piperidin-4-yl)piperazin-1-yl)ethyl)(methyl)amino)-1-oxoisoindolin-2-yl)piperidine-2,6-dione]	90.4%
82%	12.9 nM	4.27 nM	CCc1cc(Nc2ncc(Br)c(Nc3ccc4nccnc4c3P(C)(C)=O)n2)c(OC)cc1N1CCC(N2CCN(C(=O)C3CN(c4ccc5nn(C6CCC(=O)NC6=O)cc5c4)C3)CC2)CC1 (stereo not drawn) [Example 315, 3-(5-(3-(4-(1-(4-((5-bromo-4-((5-(dimethylphosphoryl)quinoxalin-6-yl)amino)pyrimidin-2-yl)amino)-2-ethyl-5-methoxyphenyl)piperidin-4-yl)piperazine-1-carbonyl)azetidin-1-yl)-2H-indazol-2-yl)piperidine-2,6-dione]	89.47%
87.2%	32.1 nM	5.89 nM	CCc1cc(Nc2ncc(Br)c(Nc3ccc4nccnc4c3P(C)(C)=O)n2)c(OC)cc1N1CCC(N2CCN(CCc3ccc4nn(C5CCC(=O)NC5=O)cc4c3)CC2)CC1 (stereo not drawn) [Example 309, 3-(5-(2-(4-(1-(4-((5-bromo-4-((5-(dimethylphosphoryl)quinoxalin-6-yl)amino)pyrimidin-2-yl)amino)-2-ethyl-5-methoxyphenyl)piperidin-4-yl)piperazin-1-yl)ethyl)-2H-indazol-2-yl)piperidine-2,6-dione]	92.99%
87.8%	20 nM	6.81 nM	CCc1cc(Nc2ncc(C(C)=O)c(Nc3ccc4nccnc4c3P(C)(C)=O)n2)c(OC)cc1N1CCC(N2CCN(CCC3CCN(c4cc(F)c(C5CCC(=O)NC5=O)c(F)c4)CC3)CC2)CC1 (stereo not drawn) [Example 703, 3-(4-(4-(2-(4-(1-(4-((5-acetyl-4-((5-(dimethylphosphoryl)quinoxalin-6-yl)amino)pyrimidin-2-yl)amino)-2-ethyl-5-methoxyphenyl)piperidin-4-yl)piperazin-1-yl)ethyl)piperidin-1-yl)-2,6-difluorophenyl)piperidine-2,6-dione]	93.35%
86.9%	43 nM	23.8 nM	CCc1cc(Nc2ncc(Br)c(Nc3ccc4nccnc4c3P(C)(C)=O)n2)c(OC)cc1N1CCC(N2CCN(C[C@H]3CCN(c4ccc5c(c4)C(=O)N(C4CCC(=O)NC4=O)C5=O)C3)CC2)CC1 (stereo partly drawn) [Example 232, 5-((R)-3-((4-(1-(4-((5-bromo-4-((5-(dimethylphosphoryl)quinoxalin-6-yl)amino)pyrimidin-2-yl)amino)-2-ethyl-5-methoxyphenyl)piperidin-4-yl)piperazin-1-yl)methyl)pyrrolidin-1-yl)-2-(2,6-dioxopiperidin-3-yl)isoindoline-1,3-dione]	86.38%
87.2%	23.6 nM	7.9 nM	CCc1cc(Nc2ncc(Br)c(Nc3ccc4nccnc4c3P(C)(C)=O)n2)c(OC)cc1N1CCC(N2CCN(CCc3ccc(C4CCC(=O)NC4=O)c(F)c3)[C@H](CO)C2)CC1 (stereo partly drawn) [Example 291, 3-(4-(2-((S)-4-(1-(4-((5-bromo-4-((5-(dimethylphosphoryl)quinoxalin-6-yl)amino)pyrimidin-2-yl)amino)-2-ethyl-5-methoxyphenyl)piperidin-4-yl)-2-(hydroxymethyl)piperazin-1-yl)ethyl)-2-fluorophenyl)piperidine-2,6-dione]	83.17%
78.8%	81.2 nM	16.6 nM	COc1cc(N2CCC(N3CCN(CCc4ccc(C5CCC(=O)NC5=O)c(F)c4)CC3)CC2)ccc1Nc1ncc(Br)c(Nc2ccc3nccnc3c2P(C)(C)=O)n1 (stereo not drawn) [Example 212, 3-(4-(2-(4-(1-(4-((5-bromo-4-((5-(dimethylphosphoryl)quinoxalin-6-yl)amino)pyrimidin-2-yl)amino)-3-methoxyphenyl)piperidin-4-yl)piperazin-1-yl)ethyl)-2-fluorophenyl)piperidine-2,6-dione]	94.28%
91%	4.47 nM	1.51 nM	CCc1cc(Nc2ncc(Br)c(Nc3ccc4nccnc4c3P(C)(C)=O)n2)c(OC)cc1N1CCC(N2CCN(C(=O)C3CN(c4ccc5c(c4)CN(C4CCC(=O)NC4=O)C5=O)C3)CC2)CC1 (stereo not drawn) [Example 246, 3-(5-(3-(4-(1-(4-((5-bromo-4-((5-(dimethylphosphoryl)quinoxalin-6-yl)amino)pyrimidin-2-yl)amino)-2-ethyl-5-methoxyphenyl)piperidin-4-yl)piperazine-1-carbonyl)azetidin-1-yl)-1-oxoisoindolin-2-yl)piperidine-2,6-dione]	93.85%
92.4%	2.9 nM	1.72 nM	CCc1cc(Nc2ncc(Br)c(Nc3ccc4nc(CO)ccc4c3P(C)(C)=O)n2)c(OC)cc1N1CCC(N2CCN(CCc3cc(F)c(C4CCC(=O)NC4=O)c(F)c3)CC2)CC1 (stereo not drawn) [Example 329, 3-(4-(2-(4-(1-(4-((5-bromo-4-((5-(dimethylphosphoryl)-2-(hydroxymethyl)quinolin-6-yl)amino)pyrimidin-2-yl)amino)-2-ethyl-5-methoxyphenyl)piperidin-4-yl)piperazin-1-yl)ethyl)-2,6-difluorophenyl)piperidine-2,6-dione]	96.43%
